The values that follow come from PubChem BioAssay (NCI).

Test systems include TK-10 renal; SF-539 CNS; CCRF-CEM leukemia; HT29 colon; SF-295 CNS; IGROV1 ovarian; SK-MEL-2 melanoma; EKVX NSCLC; HCC-2998 colon; SF-268 CNS.
Common to all, as to assay: growth of human tumour cells (NCI), 48 h

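Cultured in 96-well plates, cells were exposed to test compound for 48 hours across five concentrations. Definition used: TGI = concentration required for complete inhibition of growth.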

Consider `OC(CC(c1ccccc1)c1ccc(Cl)cc1)c1ccc(Cl)cc1` (stereo not given), for which the TGI in the experiment on TK-10 renal was greater than 100 µM; in the experiment on SF-539 CNS, greater than 100 µM; in the experiment on CCRF-CEM leukemia, greater than 100 µM; in the experiment on HT29 colon it was greater than 100 µM; in the experiment with SF-295 CNS it was 92 µM; in the experiment with IGROV1 ovarian, greater than 100 µM. Further, the TGI with SK-MEL-2 melanoma was 49.8 µM; with EKVX NSCLC it was 74.7 µM; in the experiment with HCC-2998 colon it was greater than 100 µM; in the experiment with SF-268 CNS it was greater than 100 µM.

For the compound `Cc1cc(S(=O)(=O)Nc2n[nH]c(Nc3ccccc3)n2)c(S)cc1Cl`, the TGI with TK-10 renal, in the experiment with SF-539 CNS, with CCRF-CEM leukemia, with HT29 colon, in the experiment on SF-295 CNS and in the experiment with IGROV1 ovarian was greater than 10 µM each time. Further, the TGI in the experiment with SK-MEL-2 melanoma, in the experiment with EKVX NSCLC, in the experiment with HCC-2998 colon and in the experiment with SF-268 CNS was greater than 10 µM throughout.

`Cc1ccc(-c2cc(-c3ccc(Cl)cc3)nc(/N=C3\C(=O)N(CN4CCCCC4)c4ccc(Cl)cc43)n2)cc1`: the TGI in the experiment on TK-10 renal was 71.1 µM; in the experiment on SF-539 CNS, 61.5 µM; in the experiment with CCRF-CEM leukemia, greater than 100 µM; in the experiment on HT29 colon it was greater than 100 µM; in the experiment on SF-295 CNS, greater than 100 µM; in the experiment on IGROV1 ovarian it was 34.2 µM. In addition, the TGI is 39.3 µM in the experiment on SK-MEL-2 melanoma, greater than 100 µM in the experiment with EKVX NSCLC, 29.7 µM in the experiment on HCC-2998 colon and 40.3 µM in the experiment on SF-268 CNS.
